Where two headings read alike, the source gives them in different places.

In the assay the test system is Gastric Acid Output. The assay is described as follows: Gastric antisecretory activity in the Gastric Fistula Rat (Table 2 title: Two-Hour Pylorus Ligated Rat). The following applies: numbers in parentheses are the 95% confidence limits. It counts as in vivo, Long Evans rats. How it is done: Male Long Evans rats weighing about 240-260 grams at the time of cannula implantation are used. The design and implantation of the stainless steel cannula into the anterior wall of the fore-stomach are carried out essentially as described by Pare et al. [Laboratory Animal Science, 27, 244 (1977)]. The fistula components are designed and the operative procedure is carried out exactly as described in the above reference. Post operatively the animals are individually housed in solid bottom cages with sawdust and are allowed food and water ad libitum throughout the entire recovery period. Animals are not used for test purposes for at least 15 days after the operative procedure.
The animals are fasted but allowed water ad libitum for 20 hours before the testing procedure is to begin. Immediately prior to collection, the cannula is opened and the stomach washed gently with 30-40 mL of warm saline or distilled water to remove any residual contents. The catheter is then screwed into the cannula in place of the plugging screw and the rat is placed in a clear plastic rectangular cage measuring 40 cm long, 15 cm wide and 13 cm high. The bottom of the cage has a slit approximately 1.5 cm wide and 25 cm long running down the center to accommodate the catheter which hangs through it. In this way the rat is not restricted and can move freely about the cage during collection periods. The remainder of the assay is carried out as described by Ridley et al. [Research Comm. Chem. Path. Pharm., 17, 365 (1977)].
Gastric secretions collected during the first hour after washing the stomach are discarded as they may be contaminated. For oral evaluation, the catheter is then removed from the cannula and replaced with the plugging screw. Water (2 mL/kg) is administered orally via gastric intubation and the animal is returned to the cage for 45 minutes. After this time the plugging screw is removed and replaced with a catheter to which a small plastic vial has been attached to collect the gastric secretions. A two hour sample is collected (this represents the control secretion), the catheter removed and replaced with the plugging screw. The test drug is now administered orally in a volume of 2 mL/kg via gastric intubation. Forty-five minutes later the plugging screw is again removed, replaced with the catheter attached to a small plastic vial and another 2 hour sample is collected. The secretions in the second sample are compared to those of the control sample in order to determine the effects of the test drug.
When test compounds are to be evaluated parenterally, the animal is injected ip or sc with the test compound vehicle in a volume of 2 mL/kg immediately after discarding the initial 60 minute collection. A two hour sample is collected (control secretion) and the animals are injected either ip or sc with the test compound in a volume of 2 mL/kg. An additional two hour sample is collected and its secretions are compared to those of the control period to determing drug effects.
The samples are centrifuged in a graduated tube for volume determination. Titratable acidity is measured by titrating a one mL sample to pH 7.0 with 0.02N NaOH, using an Autoburet and an electrometric pH meter (Radiometer). Titratable acid output is calculated in microequivalents by multiplying the volume in milliliters by the acid concentration in milliequivalents per liter.
Results are expressed as percent inhibition relative to control readings. Dose response curves are constructed and ED values are calculated by regression analyses. At least three rats are used at each dosage level and a minimum of three dosage levels are utilized for determination of a dose response curve.

The mark [1] stands for this setting: Rattus norvegicus, sc, Route of Administration s.c., read-out: ED50.

With `CN(C)Cc1ccc(CCCCNC2=NS(=O)(=O)N=C2N)o1` [Example 93, 3-Amino-4-{4-(5-dimethylaminomethyl-2-furyl)butylamino}-1,2,5-thiaciazole 1,1-dioxide], the ED50 under setting [1] is 0.14 µmol/kg.
Take `CN(C)Cc1ccc(CSCCNC2=NS(=O)(=O)N=C2NC2CC2)o1` [Example 97, 3-Cyclopropylamino-4-{2-[(5-dimethylaminomethyl-2-furyl)-methylthio]ethylamino}-1,2,5-thiadiazole 1,1-dioxide]: the ED50 under setting [1] was approximately 3 µmol/kg.
Take `C#CCN(C)Cc1ccc(CSCCNC2=NS(=O)(=O)N=C2NC)o1` [Example 14, 3-Methylamino-4-{2-[(5-([N-methyl-N-(2-propynyl)amino]-methyl}-2-furyl)methylthio]ethylamino}-12,5-thiadiazole 1,1-dioxide]: the ED50 under setting [1] was approximately 25 µmol/kg.
In the case of `CN(C)Cc1ccc(CSCCNc2n[s+]([O-])nc2N)s1` (stereo not shown) [Example 109, 3-Amino-4-{2-[(5-dimethylaminomethyl-2-thienyl)methylthio]-ethylamino}-1,2,5-thiadiazole 1-oxide], under setting [1], the ED50 was determined as 1.4 µmol/kg.
For the compound `CN=C(N)Nc1nc(CSCCNc2n[s+]([O-])nc2N)cs1` (stereo not shown) [Example 117, 3-Amino-4-{2-[(2-{2-methylguanidino}thiazol-4-yl)methylthio]-ethylamino}-1,2,5-thiadiazole 1-oxide], the ED50 under setting [1] is approximately 0.5 µmol/kg.
The same measure, in the same setting: the figure for `CN(C)Cc1ccc(CSCCNC2=NS(=O)(=O)N=C2O)o1` [Example 17, 3-{2-[(5-Dimethylaminomethyl-2-furyl)methylthio]ethylamino}-4-hydroxy^-1,2,5-thiadiazole 1,1-dioxide] is 33 µmol/kg; for `CNC1=NS(=O)(=O)N=C1NCCSCc1nc[nH]c1C` [Example 2] it is approximately 100 µmol/kg; for `CNC1=NS(=O)(=O)N=C1NCCSCc1csc(N)n1` [Example 122, 3-{2-[(2-Aminothiazol-4-yl)methylthio]ethylamino}-4-methylamino-1,2,5-thiadiazole 1,1-dioxide] it is approximately 10 µmol/kg.
Same read-out and setting: next, `CNC1=NS(=O)(=O)N=C1NCCSCc1ccccn1` [Example 52, 3-Methylamino-4-{2-[(2-pyridyl)methylthio]ethylamino}-1,2,5-thiadiazole 1,1-dioxide]: approximately 350 µmol/kg; `CNC1=NS(=O)(=O)N=C1NCCCOc1cccc(CN2CCCCC2)c1` [Example 132, 3-Methylamino-4-{3-(3-piperidinomethylphenoxy)propylamino] - 1,2,5-thiadiazole 1,1-dioxide]: 0.025 µmol/kg.
Regarding “3-{2-[(5-Dimethylaminomethyl-2-furyl)methy1thio]ethylamino}-4-dodecylamino-1,2,5-thiadiazole 1,1-dioxide [Example 106]”, the ED50 (Route of Administration s.c.) was approximately 80 µmol/kg.
In the case of `CN(C)Cc1ccc(CSCCNC2=NS(=O)(=O)N=C2NCc2cccnc2)s1` [Example 110, 3-{2-[(5-Dimethylaminomethyl-2-thienyl)methylthio]ethylamino}-4-[(3-pyridyl)methylamino]-1,2,5-thiadiazole 1,1-dioxide], the ED50 under setting [1] is 0.05 µmol/kg.
For `CNc1nc(CSCCNc2n[s+]([O-])nc2N)cs1` (stereo not shown) [Example 119], under setting [1], the ED50 was more than 10 µmol/kg.
Take `COCCNC1=NS(=O)(=O)N=C1NCCSCc1ccc(CN(C)C)o1` [Example 100, 3-{2-[(5-Dimethylaminomethyl-2-furyl)methylthio]ethylamino}-4-(2-methoxyethylamino)-1,2,5-thiadiazole 1,1-dioxide]: the ED50 under setting [1] was found to be 1.6 µmol/kg.
For the compound `NC(N)=Nc1nc(CSCCNc2n[s+]([O-])nc2O)cs1` (stereo not shown) [Example 116, 3-{2-[(2-Guanidinothiazol-4-yl)methylthylthio]ethylamino}-4-hydroxy-1,2,5-thiadiazole 1-oxide], under setting [1], the ED50 was more than 10 µmol/kg.
As to `Nc1nc(CSCCNc2n[s+]([O-])nc2N)cs1` (stereo not shown) [Example 124, 3-Amino-4-{2-[(2-aminothiazol-4-yl)methylthio]ethylamino}-1,2,5-thiadiazole 1-oxide], the ED50 under setting [1] is more than 10 µmol/kg.
For “3-{2-[(5-Dimethylaminomethyl-2-furyl)methylthio]-ethylamino}-4-pieridino-1,2,5-thiadiazole 1,1-dioxide [Example 102]”, the ED50 (Route of Administration s.c.) is approximately 15 µmol/kg.
With `CCCNC1=NS(=O)(=O)N=C1NCCSCc1ccc(CN(C)C)s1` [Example 108, 3-{2-[(5-Dimethylaminomethyl-2-thienyl)methylthio]ethylamino}-4-propylamino-1,2,5-thiadiazole 1,1-dioxide], under setting [1], the ED50 turned out to be 2.2 µmol/kg.
Same read-out and setting: the figure for `CNc1n[s+]([O-])nc1NCCSCc1ccc(CN(C)C)s1` (stereo not shown) [Example 92, 3-{2-[(5-Dimethylaminomethyl-2-thienyl)methylthio]-ethylamino}-4-methylamino-1,2,5-thiadiazole 1-oxide] is 0.24 µmol/kg; for `CNC1=NS(=O)(=O)N=C1NCCCOc1cccc(CN(C)C)c1` [Example 113, 3-[3-(3-Dimethylaminomethylphenoxy)propylamino]-4-methylamino-1,2,5-thiadiazole 1,1-dioxide] it is 0.07 µmol/kg; for `CCCNC1=NS(=O)(=O)N=C1NCCSCc1ccc(CN(C)C)o1` [Example 85, 3-{2-[(5-Dimethylaminomethyl-2-furyl)methylthio]ethylamino}-4-propylamino-1,2,5-thiadiazole 1,1-dioxide] it is 0.14 µmol/kg.
Regarding `CN(C)Cc1ccc(CSCCNC2=NS(=O)(=O)N=C2NCc2ccccn2)s1` [Example 129, 3-{2-[(5-Dimethylaminomethyl-2-thienyl)methylthio]ethylamino}-4-[(2-pyridyl)methylamino]-1,2,5-thiadiazole 1,1-dioxide], the ED50 under setting [1] was approximately 1 µmol/kg.
Turning to `Nc1n[s+]([O-])nc1NCCSCc1ccc(CN2CCCCC2)o1` (stereo not shown) [Example 151, 3-Amino-4-{2-.[(5-piperidinomethyl-2-furyl)methylthio]-ethylamino)-1,2,5-thiadiazole 1-oxide], under setting [1], the ED50 worked out at 0.9 µmol/kg.
With `CN=C(NC)Nc1nc(CSCCNC2=NS(=O)(=O)N=C2NC)cs1` [Example 125, 3-Methylamino-4-{2-[(2-{2,3-dimethylguanidino)thiazol-4-yl)-methylthio]ethylamino}-1,2,5-thiadiazole 1,1-dioxide], the ED50 under setting [1] is approximately 10 µmol/kg.
For the compound `CNC1=NS(=O)(=O)N=C1NCCSCc1cnc(CN(C)C)s1` [Example 114, 3-{2-[(2-Dimethylaminomethylthiazol-5-yl)methylthio]-ethylamino}-4-methylamino-1,2,5-thiadiazole 1,1-dioxide], under setting [1], the ED50 was approximately 15 µmol/kg.
With `C#CCNC1=NS(=O)(=O)N=C1NCCSCc1csc(N=C(N)N)n1` [Example 32, 3-{2-[(2-Guanidinothiazol-4-yl)methyithio]ethylamino}-4-(2-propynyl)amino-1,2,5-thiadiazole 1,1-dioxide], for the setting “Rattus norvegicus, ip, Route of Administration i.p., read-out: ED50”, the ED50 came out at 0.08 µmol/kg.
For `NC(N)=Nc1ncc(CSCCNc2n[s+]([O-])nc2N)s1` (stereo not shown) [Example 96, 3-Psnino-4-{2-[(2-guanidinothiazol-5-yl)methylthio]-ethylamino}-1,2,5-thiadiazole 1-oxide], under setting [1], the ED50 is approximately 15 µmol/kg.
As to `CNC1=NS(=O)(=O)N=C1NCCSCc1cnc(NC(=N)N)s1` [Example 95, 3-{2-[(2-Guanidinothiazol-5-yl)methylthio]ethylamino}-4-methylamino-1,2,5-thiadiazole 1,1-dioxide], the ED50 under setting [1] is approximately 15 µmol/kg.
Regarding `C=CCNC1=NS(=O)(=O)N=C1NCCSCc1ccc(CN(C)C)o1` [Example 19, 3-Allylamino-4-{2-[(5-dimethylaminomethyl-2-furyl)methyl-thio]ethylamino}-1,2,5-thiadiazole 1,1-dioxide], under setting [1], the ED50 came to 0.34 µmol/kg.
The same measure, in the same setting: the figure for `CN(C)Cc1cccc(CSCCNc2n[s+]([O-])nc2N)c1` (stereo not shown) [Example 91, 3-Arnino-4-{2-[(3-{dinethylaninomethyl}henyl)methvlthio}-ethvlamino}-1,2,5-thiadiazole 1-oxide] is 1.3 µmol/kg.
Take “3-{2-[(5-Dimethylaminomethyl-2-furyl)methylthio]ethyl- amino}-4-dinethylamino-1,2,5-thiadiazole 1,1-dioxide [Example 28]”: the ED50 (Route of Administration s.c.) was 1.39 (0.39-4.91) μmoles/kg.

Values taken from patent EP0099121A2, “Pharmaceutical compositions” (Bristol-Myers Company, priority 1982, dated 1984).
